Article PMC8778091, “In Silico-Based Discovery of Natural Anthraquinones with Potential against Multidrug-Resistant E. coli” (Pharmaceuticals, 2022)
Converted amounts (≈) assume the structure as drawn. Where two headings read alike, the source gives them in different places.

What was measured:
[1] = target: T1, E. coli gyrase B43 domain (Gyr-B) (Escherichia coli, UniProt P0AES6); assay: biochemical; assay type: biochemical
T1 construct: 20 μL of the enzyme (E. coli gyrase B43 domain; 20 μM concentration); purchased Inspiralis ATPG001
Method: (§1) Ddl-B and Gyr-B activity assays were performed according to the manufacturer protocols (ProFoldin, Catalogue No. DDA100KE, and Inspiralis, Catalogue No. ATPG001, UK).
Gyr-B assay measured the capability of the tested compounds to hinder the ATPase activity of Gyr-B subunits. This assay links the hydrolysis of ATP by gyrase to the conversion of NADH to NAD^+, which can be measured by a change in absorbance at 340 nm. The assay reactions and detection were performed using a 96-well plate. […] First, the assay mix was prepared by mixing 20 μL of the assay buffer (50 mM Tris.HCl (pH 7.5), 1 mM EDTA, 5 mM magnesium chloride, 5 mM DTT, 10% (w/v) glycerol), 1 μL phosphoenolpyruvate (80 mM in water), 1.5 μL pyruvate kinase/lactate dehydrogenase stock, 2 μL NADH (20 mM in water), and 58.8 μL water. Thereafter, 63.3 μL of assay mix and 10 μL of the test compound solution and 20 μL of the enzyme (E. coli gyrase B43 domain; 20 μM concentration) were added into the wells and mixed by pipetting. After incubation for 10 min at 25 °C, 6.7 uL of ATP (30 mM) was added to each well. After 60 min of incubation at 25 °C, the absorbance was measured at 340 nm.

[2] = Cellular toxicity against normal fibroblasts WI-38 (MTT); assay type: cell-based; conditions: human
Method: All selected top-scoring compounds were tested for their cellular toxicity against human fibroblasts cell line (WI-38). Cell line (WI-38; ATCC: CCL-75) was maintained in earth RPMI 1640 medium comprising 10% heat-inactivated fetal bovine serum (FBS) and grown at 37 °C and 5% CO2. The cell line was seeded on 96-well cell culture plates (2 × 10^4 cells/well). Cells were stimulated with tested compounds at different concentrations (from 1 to 50 µM) overnight in triplicates. Doxorubicin was used as a positive control. Cell viability was assessed by MTT assay. To normalize cell viability values, each plate included a triplicate of untreated cells considered as 100% viability, and a triplicate of cells treated with a cytotoxic mixture (200 ng/mL TNF, 200 ng/mL CD95L, 200 ng/mL TRAIL, 5 μg/mL CHX, 1% (w/v) sodium azide […]) considered as 0% viability. All other viability values were normalized according to the averages of these triplicates and analyzed by the Graph Pad Prism 5 software (La Jolla, CA, USA).

[3] = system: E. coli (MDR) b clinical isolate; assay: MIC, agar dilution method, E. coli MDR b; assay type: cell-based; conditions: Escherichia coli; range 1-64 µg/mL, 37 °C, 18-20 h; read-out: MIC E. coli (MDR) b
Method: (§2) The selected top-scoring hits were evaluated for their antibacterial effect against two clinical multidrug-resistant strains of enterotoxigenic E. coli. Both isolates were isolated as clinical samples from Beni Suef general hospital, Beni Suef, Egypt. […] MRSA (ATCC 25529) and VRSA (clinical isolate from Beni Suef general hospital, Beni Suef, Egypt) were also used to further evaluate the tested compounds against resistant Gram-positive bacteria.
(§3) Minimum inhibitory concentrations for the test compounds were analyzed following the standard agar dilution method using Meuller-Hinton (MH) agar medium against different Gram-negative and positive bacteria (Table 1). Firstly, the tested compounds were prepared as a stock suspension with a 10 mg/mL final concentration in DMSO. Subsequently, the prepared stocks were diluted in 10 mL molten soft agar (0.5% agar) to obtain a concentration range from 1–64 µg/mL, then mixed and poured over a surface of MH agar (2% agar) plates and left for solidification. Finally, exponentially grown (O.D 600 nm of 0.6) test strains (Table 1) were diluted to a final density of 10^6 CFU/mL in MH broth and spotted (1 µL/spot) over the soft agar. Then, the plates were left for drying and incubated at 37 °C for 18–20 h. Controls were conducted using DMSO seeded soft agar. At the end of the experiment, the MIC for each compound was identified as the minimum concentration that inhibited the growth of the tested strain. The experiments were carried out in triplicates.

[4] = system: E. coli (MDR) a clinical isolate; assay: MIC, agar dilution method, E. coli MDR a; assay type: cell-based; conditions: Escherichia coli; range 1-64 µg/mL, 37 °C, 18-20 h; read-out: MIC E. coli (MDR) a
Method: as §2, §3

[5] = system: MRSA (ATCC 25529); assay: MIC, agar dilution method, MRSA; assay type: cell-based, S. aureus; conditions: Staphylococcus aureus; range 1-64 µg/mL, 37 °C, 18-20 h; read-out: MIC MRSA
Method: as §2, §3

[6] = system: tested bacterial strains (E. coli MDR, MRSA, VRSA); assay: Antibacterial evaluation, tested bacterial strains taken together; assay type: cell-based; conditions: Escherichia coli; E. coli MDR, MRSA, VRSA
Method: as §2, §3

[7] = target: T2, E. coli DAla:D-Ala ligase (Ddl-B) (Escherichia coli, UniProt P07862); assay: Ddl-B enzymatic activity assay (inorganic phosphate, absorbance 650 nm); assay type: biochemical
T2 construct: purchased ProFoldin DDA100KE
Method: as §1
Ddl-B enzymatic activity assay is based on measuring the inorganic phosphate generated from the D-Alanine: D-Alanine ligation reaction. The inorganic phosphate is detected by absorbance at 650 nm. The assay reactions and detection were performed by using a 96-well plate. Different concentrations of the test compounds and the reference inhibitor D-cycloserine were prepared in DMSO (from 10 µM to 1000 µM). […] Thereafter, 33 μL of 10× enzyme substrate was prepared by mixing 3.3 μL of 100× enzyme substrate with 29.7 μL of water. Finally, 27 μL of the premix with 3 μL of the 10× enzyme substrate in each well were mixed. After 60 min of incubation at 37 °C, 45 μL of MPA3000 dye was added into the 30 μL of the reaction mixture. After 5 min of incubation, absorbance was measured at 650 nm.

[8] = system: VRSA (clinical isolate); assay: MIC, agar dilution method, VRSA; assay type: cell-based, S. aureus; conditions: Staphylococcus aureus, VRSA; range 1-64 µg/mL, 37 °C, 18-20 h; read-out: MIC VRSA
Method: as §2, §3

SMILES | IC50 [1] [µM] | Ki [1] [µM] | CC50 [2] [µM] | MIC [3] [µg/mL] | MIC [4] [µg/mL] | MIC [5] [µg/mL] | MIC [6] [µg/mL] | Ddl-B inhibition in words [7] | IC50 [7] [µM] | Ki [7] [µM] | MIC [8] [µg/mL] | IC50 ([7]; 10-1000 µM tested, read-out: IC50 Ddl-B) [µM] | Ki ([7]; read-out: Ki Ddl-B) [µM]
Cc1cc(O)c2c(c1)C(=O)c1cccc(O)c1C2=O [Chrysophanol] | 1.5 ± 0.5 | 0.83 ± 0.2 | 48.1 ± 1.39 | 4 (≈ 15.7 µM) | 4 (≈ 15.7 µM) | > 64 | 2 to 4 (≈ 7.87 to 15.7 µM) | more potent | 236 ± 8.9 | 105 ± 4.9 | 4 (≈ 15.7 µM) |  | 
Cc1cc(O)c2c(c1)C(=O)c1cc(O)cc(O)c1C2=O [Emodin] | 0.81 ± 0.3 | 0.22 ± 0.1 | 49.2 ± 1.39 | 2 (≈ 7.4 µM) | 2 (≈ 7.4 µM) | 2 (≈ 7.4 µM) | 2 to 4 (≈ 7.4 to 14.8 µM) | more potent |  |  | 2 (≈ 7.4 µM) | 216 ± 5.6 | 102 ± 4.8
CC(C)C1=CC2=CC[C@@H]3[C@](C)(CCC[C@@]3(C)C(=O)O)[C@H]2CC1 [Abietic acid] | 1.4 ± 0.4 | 0.77 ± 0.1 | > 50 | 16 (≈ 52.9 µM) | 64 (≈ 212 µM) | > 64 | 16 to 64 (≈ 52.9 to 212 µM) | inactive | > 1000 | > 1000 | 16 (≈ 52.9 µM) |  | 
